Reference: patent publication US6936569B2, “Compositions and methods for protecting cultivated plants from herbicidal injury” (priority 1998, dated 2005)
Where two headings read alike, the source gives them in different places.

Experiments:
common ragweed = conditions: postemergence application, isoxaflutole 105 g/ha; cited from earlier work
common lambsquarters = conditions: postemergence application, isoxaflutole 105 g/ha; cited from earlier work
velvetleaf = conditions: postemergence application, isoxaflutole 105 g/ha; cited from earlier work
[1] = tested on: CHEAL - common lambsquarter, Chenopodium album L.; test: 1998 field trial: weed control, common lambsquarters; type: in vivo; conditions: Table 8: field, 60 DAP
Procedure: (§1) Conventional tillage experiments were conducted in 1998 to evaluate the influence of SMS and AFS-MTMS, on corn tolerance and weed control from postemergence applications of isoxaflutole alone and in tank-mixture with metolachlor/benoxacor. Experiments were conducted at the Michigan State University Crop and Soil Science Research Farm at East Lansing, Mich. on Capac sandy clay loam soil (fine-loamy, mixed mesic Acric Ochraqualfs) containing 3.1% organic matter with a pH of 6.3 in 1998.
Tillage consisted of moldboard plowing in the fall prior to spring disking and field cultivation. Prior to spring cultivation, 320 kg/ha of 46-0-0 fertilizer was applied broadcast. […]
(§2) Corn tolerance was evaluated 30 days after planting (DAP) by visually evaluating plants for bleaching and necrotic symptoms and also by measuring corn height (base of plant to the crown) 40 DAP. Weed control by species was visually evaluated 60 DAP. […] Corn grain yield was determined by harvesting the center two rows of each plot with a plot combine. […]
Corn (ZEAMX) in the 2-leaf or 4-leaf stage was treated with herbicidal compositions consisting of BALANCE (isoxaflutole); BALANCE and DUAL II (metolachlor and the safener benoxacor); BALANCE and SMS; BALANCE and AFS-MTMS; BALANCE, DUAL II and SMS; or BALANCE, DUAL, and AFS-MTMS. The percent injury was determined 6 DAT, 12 DAT, and 30 DAP. […]

[2] = tested on: ABUTH - velvet-leaf, Abutilon theophrasti Medicus; test: 1998 field trial: weed control, velvetleaf; type: in vivo; conditions: Table 8: field, 60 DAP
Procedure: as §1
(§3) Tillage consisted of moldboard plowing in the fall prior to spring disking and field cultivation. Prior to spring cultivation, 320 kg/ha of 46-0-0 fertilizer was applied broadcast. At planting, 140 kg/ha of 6-24-24 fertilizer was applied as a banded treatment 5 cm below and 5 cm beside the corn seeds. Pioneer 37R71 corn was planted on May 11, 1998 at a rate of 62,000 seeds/ha. Each plot was 10.6 m long and consisted of 4 rows spaced 76 cm apart. […]
as §2

redroot pigweed = conditions: postemergence application, isoxaflutole 105 g/ha; cited from earlier work
[3] = tested on: ZEAMX - corn, Zea mays L.; type: in vivo; conditions: Table 8: field; for Corn Height: 40 DAP; for Grain Yield: seed weight adjusted to 15% moisture
Procedure: as §1
Tillage consisted of moldboard plowing in the fall prior to spring disking and field cultivation. Prior to spring cultivation, 320 kg/ha of 46-0-0 fertilizer was applied broadcast. At planting, 140 kg/ha of 6-24-24 fertilizer was applied as a banded treatment 5 cm below and 5 cm beside the corn seeds. Pioneer 37R71 corn was planted on May 11, 1998 at a rate of 62,000 seeds/ha. Each plot was 10.6 m long and consisted of 4 rows spaced 76 cm apart.
The tillage experiments were conducted as a randomized complete block design in a factorial arrangement with three replications. The factors consisted of herbicide application timing and herbicide treatment. Herbicides were applied when the corn was at the 2-leaf and 4-leaf stages. Corn leaf stages are described as the number of visible leaves. Herbicide treatments included isoxaflutole alone (BALANCE) at 105 g/ha and in combination with 1.1 kg/ha of metolachlor/benoxacor (DUAL II). Each of these treatments were applied either alone or with either SMS or AFS-MTMS. Each repellent was used at a rate of 0.5% v/v. Additional treatments not included in the factorial arrangement were an untreated check and a weed-free check. All herbicides were applied with a tractor mounted, compressed-air sprayer calibrated to deliver […] at 207 kPa using 8003 E flat-fan nozzles.
Corn tolerance was evaluated 30 days after planting (DAP) by visually evaluating plants for bleaching and necrotic symptoms and also by measuring corn height (base of plant to the crown) 40 DAP. Weed control by species was visually evaluated 60 DAP. Visual evaluations were based on a scale of 0 (no effect) to 100% (complete weed or crop death). Corn grain yield was determined by harvesting the center two rows of each plot with a plot combine. Seed weight was adjusted to 15% moisture.
Data were subjected to analysis of variance and means separated using Fisher's Protected LSD test at α=0.05. Data were combined over years when treatment and/or application timing by year interactions were not significant α=0.05. […] Corn height and yield results were converted to a percent of the weed-free treatment after separation.
Corn (ZEAMX) in the 2-leaf or 4-leaf stage was treated with herbicidal compositions consisting of BALANCE (isoxaflutole); BALANCE and DUAL II (metolachlor and the safener benoxacor); BALANCE and SMS; BALANCE and AFS-MTMS; BALANCE, DUAL II and SMS; or BALANCE, DUAL, and AFS-MTMS. The percent injury was determined 6 DAT, 12 DAT, and 30 DAP. As weed controls, the annual grasses (ANGR) and common lambsquarters, Chenopodium album L. (CHEAL) were treated with herbicidal compositions consisting of BALANCE; BALANCE and DUAL II; BALANCE and SMS; BALANCE and AFS-MTMS; BALANCE, DUAL II and SMS; or BALANCE, DUAL, and AFS-MTMS. The percent injury for the weed controls was determined 30 DAP.

[4] = tested on: AMARE redroot pigweed, Amaranthus retroflexus L; test: 1998 field trial: weed control, redroot pigweed; type: in vivo; conditions: Table 8: field, 60 DAP
Procedure: as §1, §3, §2

2-leaf corn = test: Greenhouse corn tolerance (visual injury, corn height) after isoxaflutole with or without acetochlor/MON-13900 plus adjuvants (Example 3); type: in vivo, Zea mays; conditions: Table 9: greenhouse, 8 DAT, isoxaflutole 105 g/ha
Procedure: This example was performed as in Example 1, except that adjuvants SMS and AFS-MTMS were added to an isoxaflutole tank-mixture that contained an acetochlor herbicide and the safener MON-13900. As in Example 1, the herbicide applications were made to 2-leaf corn, and the herbicide treatments consisted of isoxaflutole at 105 g/ha and isoxaflutole tank-mixed with 1.8 kg/ha of acetochlor/MON-13900 applied either alone or in combination with either NIS at 0.25% (v/v), SMS at 0.5% (v/v), or AFS-MTMS at 0.5% (v/v).
The herbicide compositions were applied through an 8003 E flat fan nozzle delivering 234 L/ha at a pressure of 172 kPa. Corn tolerance was evaluated 8 DAT by visually evaluating the plants for bleaching and necrotic symptoms and also by measuring corn height (base of the plant to its crown). Visual corn injury ratings were based on a scale from 0 to 100, with 0 indicating no effect and 100 indicating plant death. Corn height was measured in cm and presented as a percent of the non-treated plants, with 0 indicating total reduction in plant height and 100 indicating height equal to the non-treated plants. All experiments were conducted twice as completely randomized designs with four replications. Data were subjected to analysis of variance and means separated using Fisher's Protected LSD test at a+0.05. […]

Pioneer 3573 corn = test: Greenhouse corn tolerance (visual injury, corn height) after postemergence isoxaflutole with or without metolachlor/benoxacor plus test adjuvants (Example 1); type: in vivo, Zea mays; conditions: 8 DAT
Procedure: Various silicone-based compounds were evaluated for ability to prevent herbicidal injury to the corn when used as repellent adjuvants in herbicide formulations. In previous experiments, it was shown that isoxaflutole in combination with metolachlor and benoxacor applied once corn had emerged caused significant corn injury. The basis of this severe injury is the retention and subsequent absorption of isoxaflutole in the foliar tissue of the corn plant, which is exacerbated by the metolachlor herbicide in the composition. Therefore, to address this problem, a number of silicon-based compounds, which were believed to have repellent properties, were evaluated for the ability to prevent injury to corn plants. The compounds evaluated were an aqueous solution of […] sodium methyl siliconate and 67 weight percent water (“SMS”), an aqueous solution of 35.7 weight percent N-(2-aminoethyl)-3-aminopropyltrimethoxysilane, 58.2 weight percent methyltrimethoxysilane, and 6.1 weight percent water (“AFS-MTMS”), methyltrimethoxysilane (“MTMS”), and phosphonate ester alkyl silicon (“PEAS”). These test adjuvants are commercially available from Dow Corning, Midland, Mich. The test adjuvants were applied in combination with isoxaflutole or isoxaflutole in combination with metolachlor and the safener benoxacor, and the ability of the combination to reduce plant injury by inhibiting retention and subsequent absorption of the herbicide was evaluated.
Pioneer 3573 corn seeds (Pioneer 3573, a product of Pioneer Hi-Bred International, Inc., Des Moines, Iowa) were planted 2.54 cm deep, and velvetleaf and barnyardgrass seeds were planted 1.0 cm deep in 875 ml pots containing BACCTO professional greenhouse potting mix (a product of Michigan Peat Co., Houston, Tex.). The seedlings were grown in a greenhouse maintained at 25° C.±2° C. Natural sunlight was supplemented with light from sodium vapor lamps, which provided a total midday light intensity of 1,000 μmol m^−2 s^−1 photosynthetic photon flux at plant height during a 16 hour photoperiod. Plants were watered daily and fertilized weekly with 50 ml of a water soluble fertilizer solution (400 ppm nitrogen, 400 ppm P2O5, and 400 ppm K2O). […]
The herbicide compositions were applied through an 8003 E flat fan nozzle (available from Spraying Systems Co., Wheaton, Ill.) delivering 234 L/ha at a pressure of 172 kPa (25 gallons/acre). Corn tolerance was evaluated 8 days after treatment (DAT) by visually evaluating the plants for bleaching and necrotic symptoms and also by measuring corn height (base of the plant to its crown). […] Corn height was measured in cm and presented as a percent of the non-treated plants, with 0 indicating total reduction in plant height and 100 indicating height equal to the non-treated plants. […]

[5] = tested on: giant foxtail, Setaria faberi Herrm. (SETFA); test: 1998 field trial: weed control, giant foxtail; type: in vivo; conditions: Table 8: field, 60 DAP
Procedure: as §1, §3, §2

[6] = Table 3: 2-leaf corn, isoxaflutole 105 g/ha, adjuvant at the rate in the Rate column (0.5% v/v)

## CS(=O)(=O)c1cc(C(F)(F)F)ccc1C(=O)c1cnoc1C1CC1 [Isoxaflutole, 5-cyclopropyl isoxazol-4-4-yl-2-mesyl-trifluoromethylphenyl ketone]
Common ragweed
  control of common ragweed: greater than 90%
Common lambsquarters
  control of common lambsquarters: greater than 90%
velvetleaf
  control of velvetleaf: greater than 90%
[1]; 2-leaf application
  Weed Control, CHEAL: 95%
[1]; 4-leaf application
  Weed Control, CHEAL: 96%
[2]; 2-leaf application
  Weed Control, ABUTH: 99%
[2]; 4-leaf application
  Weed Control, ABUTH: 100%
Redroot pigweed
  control of redroot pigweed: greater than 90%
[3]; 2-leaf application, 30 DAP (21 days after application), isoxaflutole 105 g/ha, metolachlor 1121 g/ha, adjuvants 0.5% v/v
  Corn Injury: 0%
[3]; 2-leaf application
  Corn Height: 61 cm
  Grain Yield: 10420 kg/ha
[3]; 4-leaf application, 30 DAP (15 days after application)
  Corn Injury: 10%
[3]; 4-leaf application
  Corn Height: 61 cm
  Grain Yield: 9995 kg/ha
[4]; 2-leaf application
  Weed Control, AMARE: 98%
[4]; 4-leaf application
  Weed Control, AMARE: 100%
2-leaf corn
  Height, Isoxaflutole: 99 % of control
2-leaf corn; NIS 0.25% v/v, SMS or AFS-MTMS 0.5% v/v
  Injury, Isoxaflutole: 0%
Pioneer 3573 corn; [6]
  Height, Isoxaflutole: 100 % of control
  Injury, Isoxaflutole: 2%
Pioneer 3573 corn; greenhouse, 2-leaf corn, adjuvant rate 0%, isoxaflutole 105 g/ha, metolachlor/benoxacor 1.1 kg/ha, scale 0 no effect to 100 plant death
  % injury to corn: 2%
Pioneer 3573 corn; greenhouse, adjuvant rate 0%
  Corn Height as a Percent of Control: 100 % of control height
[5]; 2-leaf application
  Weed Control, SETFA: 73%
[5]; 4-leaf application
  Weed Control, SETFA: 70%
